Data on one compound can be found in US20060281787A1, “Bisindolyl maleimides useful for treating prostate cancer and akt-mediated diseases” (priority 2003, published 2006).

What is called EC50 is the concentration that produces a half-maximal response.

In test [1] the target is T1, recombinant PDK-1 (Homo sapiens, UniProt O15530).
T1 construct: purchased UBI
T1 sequence (O15530 1-556): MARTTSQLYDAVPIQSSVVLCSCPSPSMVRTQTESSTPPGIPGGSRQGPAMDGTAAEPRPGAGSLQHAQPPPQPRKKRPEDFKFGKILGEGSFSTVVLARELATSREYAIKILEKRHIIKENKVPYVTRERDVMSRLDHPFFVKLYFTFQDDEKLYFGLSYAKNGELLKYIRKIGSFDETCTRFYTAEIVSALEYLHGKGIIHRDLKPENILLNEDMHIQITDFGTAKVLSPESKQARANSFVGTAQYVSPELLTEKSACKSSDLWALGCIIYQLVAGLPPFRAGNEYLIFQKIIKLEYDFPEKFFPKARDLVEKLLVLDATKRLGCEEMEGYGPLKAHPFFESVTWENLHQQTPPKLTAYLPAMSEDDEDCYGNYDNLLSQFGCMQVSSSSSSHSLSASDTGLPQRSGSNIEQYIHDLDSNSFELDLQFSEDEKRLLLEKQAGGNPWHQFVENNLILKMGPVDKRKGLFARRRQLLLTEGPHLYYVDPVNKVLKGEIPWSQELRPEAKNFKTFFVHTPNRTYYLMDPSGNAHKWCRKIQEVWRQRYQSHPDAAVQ
Description: PDK-1 kinase activity assay (PDK-tide phosphorylation, phosphocellulose filter plates). The test is classed as biochemical. The note with it: at Km for ATP and PDKtide saturation; read-out: inhibits PDK-1, EC50. The method, then: (§1) The assay described measures the phosphorylation of the PDK1 consensus phosphorylation site PDK-tide peptide ([…]; cat # 14452, lot 23876U) by recombinant PDK-1 (UBI) at Km for ATP and PDKtide saturation using phosphocellulose membrane filter plates. Phosphorylation of the p70S6 kinase substrate by recombinant p70S6 kinase is also measured similarly.

The target of test [2] is recombinant p70S6 kinase (Homo sapiens, UniProt P23443). Description: p70S6 kinase activity assay. To be noted: read-out: inhibits p70S6kinase, EC50. The test is classed as biochemical. As for the experimental part: as §1
Test [3] deals with human cancer cell lines derived from colon. Description: Apoptosis assay (Cell Death Detection ELISA), colon. It is filed as cell-based. As for the experimental part:
Both HCT116 colon carcinoma (cat#CCL-247) and U87MG glioblastoma (cat#HTB-14) cell lines were obtained from the American Type Culture Collection (ATCC). The standard growth media differed for each cell line but all were grown in 10% heat-inactivated FBS (Invitrogen cat# 10082-147), 37° C., 5% CO2 atmosphere and in a humidified chamber. Cell passage was completed one to two times per week using 0.25% trypsin/1 mM EDTA (Invitrogen, cat# 25200-056) solution maintaining cells in log phase growth. U87MG cells were cultured in DMEM media (Invitrogen cat# 11965-092), 1 mM non-essential amino acids (NEAA), and 0.1 mM Sodium Pyruvate. HCT116 cells were grown in McCoy's 5A Modified media (Invitrogen, cat# 16600-082), 0.15% sodium bicarbonate, 0.1 mM HEPES, 25 mM D-glucose and 0.1 mM sodium Pyruvate.
(§2) Apoptosis assays were executed using the Cell Death Detection ELISAPIUS (Roche, 1774425) assay kit strictly following the enclosed protocol.
(In general: An ELISA detects its analyte on a solid surface through an enzyme-linked reagent.)

Test [4] relates to human cancer cell lines derived from lung. Description: Apoptosis assay (Cell Death Detection ELISA), lung. The test is classed as cell-based.
Text: as §2

For test [5], the system named is human cancer cell lines derived from prostate (both androgen-dependent and independent cell lines). Description: Apoptosis assay (Cell Death Detection ELISA), prostate. The test is classed as cell-based.
Text: as §2

Test [6] deals with human cancer cell lines from non-Hodgkin's lymphoma. Description: Apoptosis assay (Cell Death Detection ELISA), non-Hodgkin's lymphoma. The test is classed as cell-based.
Text: as §2

The test system of test [7] is GSK3β. Description: Phosphorylation of GSK3β (western blot, AKT pathway readout). The test is classed as cell-based. To be noted: readout of AKT pathway activity. The method, then: (§3) Protein lysates were prepared by incubation in RIPA Buffer (50 mM Tris-HCl, 150 mM NaCl, 1 mM EDTA, 1% NP40, 0.25% Sodium deoxycholate, 1 mM sodium fluoride, 1 mM sodium orthovanadate and Complete™ protease inhibitors (Roche Cat# 10019600) for one hour with rotation. The lysate was then centrifuged (10 minutes@ 10,000 rpm), supernatant harvested and protein concentrations were determined using the Bio-Rad DC Protein Assay (cat# 500-0122). Proteins were separated by SDS-PAGE using 4-20% tris-glycine gels (Invitrogen, cat# EC6028) and transferred to Hyper™-bond PVDF membrane (Amersham, cart# rpn303F). All primary antibodies were incubated overnight at 4° C. in 5% milk/1×PBS (Gibco, cat# 70011-044) solution. Horseradish peroxidase (HRP) linked secondary antibodies (Santa Cruz, cat# sc-2055, sc-2054) were incubated for a minimum of two hours prior to detection. Specific signal was determined by the Lumi-Imager™ and Lumi-Analyst software to define changes in protein expression and phosphorylation. […]
In general terms: A western blot detects proteins with antibodies after separation by electrophoresis.

For test [8], the system named is forkhead transcription factor AFX. As to the kind of experiment: Phosphorylation of AFX (western blot, AKT pathway readout). The test is classed as cell-based. To be noted: readout of AKT pathway activity. The method, then: as §3
Test [9] relates to 4EBP1. As to the kind of experiment: Phosphorylation of 4EBP1 (western blot, AKT pathway readout). The test is classed as cell-based. The note with it: readout of AKT pathway activity. As for the experimental part: as §3
The subject of test [10] is ribosomal protein S6. Description: Phosphorylation of ribosomal protein S6 (western blot, AKT pathway readout). The test is classed as cell-based. The note with it: readout of AKT pathway activity. The method, then:
as §3

The test system of test [11] is GSK3β ser9 phosphorylation. Description: GSK3β ser9 phosphorylation in xenograft tissues of treated mice. The test is classed as in vivo. To be noted: human tumor xenograft-bearing mice. As for the experimental part:
as §3
Approximately 5×10^6 tumor cells are implanted subcutaneously into the flank of athymic nude mice (Harlan, Indianapolis, Ind.). […] Body weight and tumor size are monitored weekly or twice weekly.
(Xenograft models place foreign cells or tissue in a host animal.)

For test [12], the system named is HCT116 colon cancer xenografts. As to the kind of experiment: In vivo tumor inhibition, HCT116 xenografts. More on the design: species or system athymic nude mice. From the text: (§4) Approximately 5×10^6 tumor cells are implanted subcutaneously into the flank of athymic nude mice (Harlan, Indianapolis, Ind.). Treatment of tumors begins when the tumors reach 100 mm^3 and continues for 21 consecutive days twice per day PO. Body weight and tumor size are monitored weekly or twice weekly.

The test system of test [13] is U87MG glioblastoma xenografts. As to the kind of experiment: In vivo tumor inhibition, U87MG xenografts. Also noted: species or system athymic nude mice.
Text: as §4

Test [14] relates to xenografts from the androgen-independent prostate carcinoma cell line PC3. As to the kind of experiment: In vivo tumor inhibition, PC3 xenografts. More on the design: species or system athymic nude mice.
Text: as §4

Sequence of recombinant p70S6 kinase (P23443 whole entry): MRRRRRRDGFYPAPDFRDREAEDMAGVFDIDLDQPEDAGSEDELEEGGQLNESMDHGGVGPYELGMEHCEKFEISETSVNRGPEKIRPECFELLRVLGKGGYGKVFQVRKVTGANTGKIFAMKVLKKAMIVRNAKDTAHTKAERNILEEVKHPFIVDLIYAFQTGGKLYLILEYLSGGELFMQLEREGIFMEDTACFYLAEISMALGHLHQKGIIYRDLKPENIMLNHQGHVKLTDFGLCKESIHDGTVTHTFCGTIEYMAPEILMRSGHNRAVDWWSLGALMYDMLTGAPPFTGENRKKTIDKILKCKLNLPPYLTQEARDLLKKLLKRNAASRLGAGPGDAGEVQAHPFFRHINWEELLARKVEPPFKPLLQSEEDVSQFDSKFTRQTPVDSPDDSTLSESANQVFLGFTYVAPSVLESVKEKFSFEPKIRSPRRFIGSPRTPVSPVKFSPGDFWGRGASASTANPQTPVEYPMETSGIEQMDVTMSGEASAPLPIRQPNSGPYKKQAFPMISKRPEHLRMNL

Take `Cn1cc(C2=C(c3cn(C4CCNCC4)c4ccccc34)C(=O)NC2=O)c2ccccc21` [Compound 1]: the 50% effective concentration (EC50) in test [1] is 370 nM; in test [2], less than 500 nM. Further, the induction of apoptosis entry in test [3], in test [4], in test [5] and in [6] was “induces apoptosis” in each case. Also, in test [7], the “phosphorylation of GSK3β” value was “suppresses phosphorylation”. Besides, the “phosphorylation of the forkhead transcription factor AFX” value in test [8] is recorded as “suppresses phosphorylation”. In test [9], the “phosphorylation of 4EBP1” value is listed as “suppresses phosphorylation”. Further, in test [10], the “phosphorylation of ribosomal protein S6” value is “suppresses phosphorylation”. Further, in test [11] (including an androgen-independent prostate carcinoma cell line), the “GSK3β ser9 phosphorylation in xenograft tissues” value is listed as “suppresses GSK3β ser9 phosphorylation”. Besides, the “duration of suppression of GSK3β ser9 phosphorylation post dosing” value in test [11] (post dosing) was “up to 8 hours”. For the same compound, the anti-tumor efficacy result in test [12], in [13] and in test [14] was “has been demonstrated” in each case.
